Reference: ChEMBL document CHEMBL5244281, “Tackling multidrug-resistant Staphylococcus aureus by natural products and their analogues acting as NorA efflux pump inhibitors” (Bioorg Med Chem, 2023)
≈ marks a conversion by molar mass, not a printed value.

What was measured:
Staphylococcus aureus [1] = test: Synergistic antimicrobial activity against Staphylococcus aureus 1199B overexpressing NorA efflux pump assessed as norfloxacin MIC incubated for 24 hrs by broth dilution method; type: functional
[2] = target: T1, Quinolone resistance protein NorA (Staphylococcus aureus) (UniProt P0A0J7); test: Inhibition of NorA efflux pump in Staphylococcus aureus 1199B overexpressing NorA gene assessed as efflux inhibition at 2 mg/L by Hoechst 33342 staining based fluorescence assay
T1 sequence (whole entry): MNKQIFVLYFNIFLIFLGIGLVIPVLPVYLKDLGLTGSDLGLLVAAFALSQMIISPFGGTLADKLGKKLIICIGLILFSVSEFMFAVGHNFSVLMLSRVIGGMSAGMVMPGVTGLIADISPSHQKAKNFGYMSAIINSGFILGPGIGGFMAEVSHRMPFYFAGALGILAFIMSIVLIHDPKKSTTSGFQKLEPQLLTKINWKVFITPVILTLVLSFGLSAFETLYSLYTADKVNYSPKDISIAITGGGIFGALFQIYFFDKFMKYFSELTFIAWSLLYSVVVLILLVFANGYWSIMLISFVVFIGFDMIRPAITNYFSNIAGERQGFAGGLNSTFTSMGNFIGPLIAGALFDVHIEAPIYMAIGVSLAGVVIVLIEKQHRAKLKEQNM

[3] = target: T1, Quinolone resistance protein NorA (Staphylococcus aureus); test: Inhibition of NorA efflux pump in Staphylococcus aureus 1199B overexpressing NorA efflux pump assessed as reduction in ciprofloxacin MIC at […] by resazurin based assay (Rvb= 6.25 ug/ml)
[4] = target: Quinolone resistance protein NorA (Staphylococcus aureus, UniProt P0A0J7); test: Inhibition of NorA efflux pump in Staphylococcus aureus 1199B overexpressing NorA gene assessed as reduction in EtBr efflux inhibition by spectrofluorometric assay
Staphylococcus aureus [5] = test: Antibacterial activity against fluoroquinolone-resistant Staphylococcus aureus 1199B overexpressing NorA gene assessed as bacterial growth inhibition by microdilution method; type: functional
Staphylococcus aureus [6] = test: Antibacterial activity against Staphylococcus aureus 1199B overexpressing NorA efflux protein assessed as bacterial growth inhibition; type: functional
Staphylococcus aureus [7] = test: Synergistic antibacterial activity against Staphylococcus aureus 1199B overexpressing NorA efflux protein assessed as fractional inhibitory concentration index in presence of norfloxacin by checkerboard assay; type: functional
Staphylococcus aureus [8] = test: Synergistic antibacterial activity against Staphylococcus aureus 1199B overexpressing NorA efflux protein assessed as fractional inhibitory concentration index in presence of ciprofloxacin by checkerboard assay; type: functional
Staphylococcus aureus [9] = test: Synergistic antibacterial activity against Staphylococcus aureus 1199B overexpressing NorA efflux protein assessed as fractional inhibitory concentration index in presence of moxifloxacin by checkerboard assay; type: functional
Staphylococcus aureus [10] = test: Synergistic antibacterial activity against Staphylococcus aureus 1199B overexpressing NorA efflux protein assessed as fractional inhibitory concentration index in presence of chloramphenicol by checkerboard assay; type: functional
Staphylococcus aureus [11] = test: Antibacterial activity against Staphylococcus aureus K1758 with NorA deletion mutant assessed as bacterial growth inhibition; type: functional
Staphylococcus aureus [12] = test: Synergistic antimicrobial activity against Staphylococcus aureus 1199B overexpressing NorA efflux pump assessed as fractional inhibitory concentration index incubated for 24 hrs by checkerboard method; type: functional
Staphylococcus aureus [13] = test: Synergistic antimicrobial activity against Staphylococcus aureus 1199B overexpressing NorA efflux pump assessed as reduction in norfloxacin MIC incubated for 24 hrs by MTT colorimetric assay (Rvb= 128 mg/ml); type: functional
LS180 = test: Cytotoxicity against human LS180 cells; type: functional, cell-based
[14] = target: ATP-dependent translocase ABCB1 (Homo sapiens, UniProt P08183); test: Inhibition of P-gp mediated efflux in human LS180 cells using digoxin as substrate incubated for 90 mins by fluorescence assay; type: cell-based
[15] = target: T1, Quinolone resistance protein NorA (Staphylococcus aureus); test: Inhibition of NorA efflux pump in Staphylococcus aureus 1199B overexpressing NorA efflux pump assessed as decrease in norfloxacin MIC at 1/4 times MIC and measured for 45 mins in presence of norfloxacin by fluorimetric analysis (Rvb=32 ug/ml)
Staphylococcus aureus [16] = test: Synergistic antibacterial activity against Staphylococcus aureus 1199B overexpressing NorA efflux pump assessed as fractional inhibitory concentration index in presence of ciprofloxacin incubated for 18 hrs by checkerboard assay; type: functional
Staphylococcus aureus [17] = test: Antibacterial activity against Staphylococcus aureus K1758 with NorA knockout assessed as bacterial growth inhibition incubated for 18 hrs by broth dilution method; type: functional
Staphylococcus aureus [18] = test: Antibacterial activity against Staphylococcus aureus 1199B overexpressing NorA efflux pump assessed as bacterial growth inhibition incubated for 18 hrs by broth dilution method; type: functional
[19] = target: T1, Quinolone resistance protein NorA (Staphylococcus aureus); test: Inhibition of NorA efflux pump in Staphylococcus aureus 1199B overexpressing NorA efflux pump assessed as decrease in ciprofloxacin MIC at 1/4 times MIC and measured for 45 mins in presence of ciprofloxacin by fluorimetric analysis (Rvb=8 ug/ml)
Staphylococcus aureus [20] = test: Synergistic antibacterial activity against Staphylococcus aureus 1199B overexpressing NorA efflux pump assessed as fractional inhibitory concentration index in presence of norfloxacin incubated for 18 hrs by checkerboard assay; type: functional
Staphylococcus aureus [21] = test: Synergistic antibacterial activity against methicillin-susceptible Staphylococcus aureus 1199B overexpressing NorA efflux pump assessed as reduction in norfloxacin MIC at 64 ug/ml incubated for 18 to 24 hrs in presence of norfloxacin by MTT assay; type: functional; settings: dose 64 µg/ml, time 18-24 hrs
Staphylococcus aureus [22] = test: Synergistic antibacterial activity against methicillin-susceptible Staphylococcus aureus 1199B overexpressing NorA efflux pump assessed as fractional inhibitory concentration index at 64 ug/ml incubated for 18 to 24 hrs in presence of norfloxacin by checkerboard microdilution assay; type: functional; settings: dose 64 µg/ml; time 18-24 hrs
Staphylococcus aureus [23] = test: Antibacterial activity against wild type Staphylococcus aureus 1199 assessed as bacterial growth inhibition incubated for 24 hrs by resazurin based microdilution assay; type: functional
Staphylococcus aureus [24] = test: Antibacterial activity against Staphylococcus aureus RN4220 expressing MsrA efflux protein assessed as bacterial growth inhibition incubated for 24 hrs by resazurin based microdilution assay; type: functional
Staphylococcus aureus [25] = test: Antibacterial activity against Staphylococcus aureus 1199B expressing NorA efflux protein assessed as bacterial growth inhibition incubated for 24 hrs by resazurin based microdilution assay; type: functional
Staphylococcus aureus [26] = test: Antibacterial activity against Staphylococcus aureus IS-58 expressing TetK efflux protein assessed as bacterial growth inhibition incubated for 24 hrs by resazurin based microdilution assay; type: functional
[27] = target: UDP-N-acetylmuramoyl-L-alanyl-D-glutamate--2,6-diaminopimelate ligase (Mycobacterium tuberculosis (strain ATCC 25618 / H37Rv), UniProt P9WJL3); test: Inhibition of MurE ligase activity in Mycobacterium tuberculosis assessed as release of inorganic phosphate by hydrolysis of ATP using UDP-MurNAc-l-Ala-d-Glu as substrate in presence of ATP incubated for 30 mins by absorbance assay
[28] = system: Staphylococcus haemolyticus; test: Antibacterial activity against Staphylococcus haemolyticus assessed as bacterial growth inhibition by microdilution assay; type: functional
WI-38 = test: Cytotoxicity against human WI-38 cells assessed as reduction in cell viability by sulforhodamine B assay; type: functional, cell-based
A549 = test: Cytotoxicity against human A549 cells assessed as reduction in cell viability by sulforhodamine B assay; type: functional, cell-based
[29] = system: Staphylococcus haemolyticus; test: Antibacterial activity against Staphylococcus haemolyticus grown in blood assessed as bacterial growth inhibition by microdilution assay; type: functional
MCF7 = test: Cytotoxicity against human MCF7 cells assessed as reduction in cell viability by sulforhodamine B assay; type: functional, cell-based
Staphylococcus aureus [30] = test: Antibacterial activity against wild type Staphylococcus aureus 1199 assessed as bacterial growth inhibition incubated for 24 hrs by microdilution method; type: functional
Staphylococcus aureus [31] = test: Antibacterial activity against Staphylococcus aureus 1199B overexpressing NorA efflux protein assessed as bacterial growth inhibition incubated for 24 hrs by microdilution method; type: functional

COC[C@@H](Cc1ccc(OC)c(OC)c1)[C@@H](COC)Cc1ccc(OC)c(OC)c1
MIC (Staphylococcus aureus [1]): 12.7 µg/mL

C[C@@H]1O[C@@H](Oc2c(-c3ccc(O)cc3)oc3cc(O)cc(O)c3c2=O)[C@H](OC(=O)/C=C/c2ccc(O)cc2)[C@H](O)[C@H]1OC(=O)/C=C/c1ccc(O)cc1
inhibition [2]: 40% | MIC [3]: 0.78 µg/mL | IC50 [4]: 2 µM | MIC (Staphylococcus aureus [5]): 35 µM

Nc1ccccc1-c1cc2ccccc2[nH]1
MIC (Staphylococcus aureus [6]): 128 µg/mL (≈ 615 µM) | fractional inhibitory concentration index (FICI) (Staphylococcus aureus [7]): >=0.5 | fractional inhibitory concentration index (FICI) (Staphylococcus aureus [8]): >=0.5 | fractional inhibitory concentration index (FICI) (Staphylococcus aureus [9]): >=0.5 | fractional inhibitory concentration index (FICI) (Staphylococcus aureus [10]): >=0.5 | MIC (Staphylococcus aureus [11]): 64 µg/mL (≈ 307 µM)

C/C=C/C1=CC2C(=CC1=O)O[C@H](c1ccc(OC)c(OC)c1)[C@H]2C (stereo not given in full)
fractional inhibitory concentration index (FICI) (Staphylococcus aureus [12]): 0.25 | MIC (Staphylococcus aureus [13]): 32000 µg/mL

CC(=O)c1c(-c2ccc(F)cc2)cn(-c2ccc(C)cc2)c1C
IC50 (LS180): > 100 µM | IC50 [14]: 11.2 µM

COc1cc(/C=C/C(=O)N/N=C/c2ccc[nH]2)cc(OC)c1OC
MIC [15]: 1 µg/mL | fractional inhibitory concentration index (FICI) (Staphylococcus aureus [16]): 0.56 | MIC (Staphylococcus aureus [17]): 64 µg/mL (≈ 194 µM) | MIC (Staphylococcus aureus [18]): 64 µg/mL (≈ 194 µM) | MIC [19]: 0.5 µg/mL | fractional inhibitory concentration index (FICI) (Staphylococcus aureus [20]): 0.56

COc1cc2c(cc1O)CC[n+]1cc3c(OC)c(OC)ccc3cc1-2 [JATRORRHIZINE]
MIC (Staphylococcus aureus [21]): 16 µg/mL | fractional inhibitory concentration index (FICI) (Staphylococcus aureus [22]): 0.375

CC1=CC(=O)c2ccccc2C1=O [MENADIONE]
MIC (Staphylococcus aureus [23]): 64 µg/mL (≈ 372 µM) | MIC (Staphylococcus aureus [24]): 64 µg/mL (≈ 372 µM) | MIC (Staphylococcus aureus [25]): 64 µg/mL (≈ 372 µM) | MIC (Staphylococcus aureus [26]): 64 µg/mL (≈ 372 µM)

CC[C@H](C)C(=O)c1c(O)cc(O)cc1OC/C=C(\C)CCC=C(C)C [OLYMPICIN A]
IC50 [27]: 75 µM | MIC [28]: ≥ 16 µg/mL | IC50 (WI-38): 8.9 µM | IC50 (A549): 10.5 µM | MIC [29]: > 32 µg/mL | IC50 (MCF7): 12.5 µM

O=C(OC[C@H]1O[C@@H](OC(=O)c2cc(O)c(O)c(OC(=O)c3cc(O)c(O)c(O)c3)c2)[C@H](OC(=O)c2cc(O)c(O)c(OC(=O)c3cc(O)c(O)c(O)c3)c2)[C@@H](OC(=O)c2cc(O)c(O)c(OC(=O)c3cc(O)c(O)c(O)c3)c2)[C@@H]1OC(=O)c1cc(O)c(O)c(OC(=O)c2cc(O)c(O)c(O)c2)c1)c1cc(O)c(O)c(OC(=O)c2cc(O)c(O)c(O)c2)c1 [TANNIC ACID]
MIC (Staphylococcus aureus [30]): ≥ 1020 µg/mL | MIC (Staphylococcus aureus [31]): ≥ 1020 µg/mL
